Reference: patent US11478451B1, “Macrocyclic chlorine substituted indole derivatives” (Bayer Aktiengesellschaft, priority 2017, dated 2022)
Like-named read-outs stand apart in the source and are kept apart here.

How the values were obtained:
SUDHL10 cells [1] = assay: Induction of caspase-3/7 activity (Caspase-Glo 3/7), SUDHL10; format: cell-based; conditions: EC50, median, SUDHL10, 3 h treatment
Procedure, shortened: (§1)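 DLBCL lines were exposed to test compounds for 3 h at 37 °C in a humidified incubator, then caspase-3/7 activity was measured with Caspase-Glo 3/7 reagent. Medium-only background was subtracted from all readings.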

SUDHL5 cells [2] = assay: Antiproliferation assay (CellTiter-Glo, 72 h), SUDHL5; format: cell-based; conditions: IC50, median, SUDHL5, 72 h, read-out: Antiproli SUDHL5 [M] (median)
Procedure, shortened: (§2)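 Cells were exposed to compounds for 72 h at 37 °C in a humidified incubator, with rim wells excluded. Viability was read by CellTiter-Glo luminescence after a 10 min incubation. A parallel day 0 plate, read the same way, gave the time-zero baseline.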

SUDHL10 cells [3] = assay: Induction of cytotoxicity (CellTiter-Glo, 5 h), SUDHL10; conditions: SUDHL10, 5 h
HMC-1-8 cells = assay: Antiproliferation assay (CellTiter-Glo, 72 h), HMC-1-8; format: cell-based; conditions: IC50, median, HMC-1-8, 72 h, read-out: Antiproli HMC-1-8 [M] median
Experimental: Assessment of the Anti-Proliferative Effect of Compounds in Different Cell Lines
The impact of compounds on the proliferation of different cell lines was assessed using the CellTiter-Glo® Luminescent Cell Viability reagent from Promega (G7573).
In parallel, cells were plated in a reference (day 0) plate for time zero determination.
Rim wells were excluded. The cells were incubated for 72 h hours in a humidified incubator at 37° C. The day 0 plate was measured by adding 30 μL/well of CTG solution (CellTiter-Glo® Luminescent Cell Viability reagent, Promega G7573) to time zero wells in the reference plate followed by a 10 minutes incubation and luminescence reading at 0.1 ms. using the PHERAstar FS microplate reader (BMG Labtech).
After 72 h incubation, the treated plates were measured in the same way as the day 0 plate mentioned above.

AMO-1 cells = assay: Antiproliferation assay (CellTiter-Glo, 72 h), AMO-1; format: cell-based; conditions: IC50, median, AMO-1, 72 h, read-out: Antiproli AMO-1 [M] median
Procedure, shortened: as §2

SUDHL5 cells [4] = assay: Induction of cytotoxicity (CellTiter-Glo, 5 h), SUDHL5; conditions: SUDHL5, 5 h
Experimental: Therefore, cytotoxicity assays were run in parallel in SUDHL5 and SUDHL10 cells.
The different cell lines were plated in culture medium (RPMI 1640 [GIBCO #22400-089] supplemented with 10% Fetal Bovine Serum) at a density of 3,300 cells in 30 μL/well in a sterile, solid black, flat bottom, polystyrene, TC-treated 384-well microplate (Corning #3571) using Multidrop Combi Reagent Dispenser. As a control, medium without cells was also added to the plate. Cells were incubated in a humidified incubator at 37° C. overnight. […] Rim wells were excluded. The cells were incubated for 5 h hours in a humidified incubator at 37° C. After this incubation, 30 μL of CellTiter-Glo® Luminescent Cell Viability reagent (Promega, G7573) was added to each well using the Multidrop Combi Reagent Dispenser, followed by 15 min incubation on a shaker at room temperature. Finally, luminescence was read at 0.1 ms, with a gain of 3000 using the PHERAstar FS microplate reader (BMG Labtech).

SUDHL5 cells [5] = assay: Induction of caspase-3/7 activity (Caspase-Glo 3/7), SUDHL5; format: cell-based; conditions: EC50, median, SUDHL5, 3 h treatment
Procedure, shortened: as §1

[6] = Homo sapiens, SU-DHL10, 5 h, read-out: Cytotox SUDHL10 [M] (median), IC50, median
[7] = Homo sapiens, SU-DHL-5, 5 h, read-out: Cytotox SUDHL5 [M] (median), IC50, median

| Structure (SMILES) | EC50 (SUDHL10 cells [1]; Homo sapiens, SU-DHL10, 3 h) [nM] | IC50 (SUDHL5 cells [2]; Homo sapiens, SU-DHL-5, 72 h) [M] | EC50 (SUDHL5 cells [5]; Homo sapiens, SU-DHL-5, 3 h) [nM] | EC50 (SUDHL10 cells [1]) [nM] | IC50 (SUDHL5 cells [2]) [M] | EC50 (SUDHL5 cells [5]) [nM] | EC50 (SUDHL10 cells [1]; listed as 086) [nM] | IC50 (SUDHL5 cells [2]; listed as 086) [M] | EC50 (SUDHL5 cells [5]; listed as 086) [nM] | IC50 (SUDHL10 cells [3]; [6]) [M] | IC50 (HMC-1-8 cells; 72 h) [M] | IC50 (AMO-1 cells; Homo sapiens, AMO1, 72 h) [M] | IC50 (SUDHL5 cells [4]; [7]) [M] | IC50 (SUDHL10 cells [3]; read-out: Cytotox SUDHL10 [M] (median), IC50, median) | IC50 (AMO-1 cells) [M] | IC50 (SUDHL5 cells [4]; read-out: Cytotox SUDHL5 [M] (median), IC50, median) | IC50 (SUDHL10 cells [3]; read-out: Cytotox SUDHL10 [M] (median), IC50, median, listed as 086) | IC50 (HMC-1-8 cells; listed as 086) [M] | IC50 (SUDHL5 cells [4]; read-out: Cytotox SUDHL5 [M] (median), IC50, median, listed as 086) |
| --- | --- | --- | --- | --- | --- | --- | --- | --- | --- | --- | --- | --- | --- | --- | --- | --- | --- | --- | --- |
| Cc1c2c(nn1CCCN1CCN(C)CC1)COCCCCn1c(C(=O)O)c(CCCOc3cccc4ccccc34)c3ccc(Cl)c-2c31 (racemic) [Example 48, (rac)-4-chloro-3-methyl-2-[3-(4-methylpiperazin-1-yl)propyl]-7-{3-[(naphthalen-1-yl)oxy]propyl}-2,10,11,12,13,15-hexahydropyrazolo[4′,3′:9,10][1,6]oxazacycloundecino[8,7,6-hi]indole-8-carboxylic acid] | 400 | 2e-07 | 160 | – | – | – | – | – | – | 3e-07 | 8.2e-07 | 1.8e-07 | 1.8e-07 | – | – | – | – | – | – |
| Cc1c2c(nn1C)COCC(F)(F)CCn1c(C(=O)O)c(CCCOc3cccc4ccccc34)c3ccc(Cl)c-2c31 (racemic) [Example 55, (rac)-4-chloro-12,12-difluoro-2,3-dimethyl-7-{3-[(naphthalen-1-yl)oxy]propyl}-2,10,11,12,13,15-hexahydropyrazolo[4′,3′:9,10][1,6]oxazacycloundecino[8,7,6-hi]indole-8-carboxylic acid] | – | – | – | 520 | 4.3e-07 | 600 | – | – | – | – | 2.2e-06 | – | – | 7.4e-07 | 1.4e-06 | 6.7e-07 | – | – | – |
| Cc1c2c(nn1C)CN(CC(F)(F)F)CCCCn1c(C(=O)O)c(CCCOc3cccc4cc(F)ccc34)c3ccc(Cl)c-2c31 (racemic) [Example 58, (rac)-4-chloro-7-{3-[(6-fluoronaphthalen-1-yl)oxy]propyl}-2,3-dimethyl-14-(2,2,2-trifluoroethyl)-10,11,12,13,14,15-hexahydro-2H-pyrazolo[3′,4′:8,9][1,6]diazacycloundecino[10,11,1-hi]indole-8-carboxylic acid] | 1500 | 6.2e-07 | 510 | – | – | – | – | – | – | 2e-06 | 5.8e-06 | 1.7e-06 | 8.4e-07 | – | – | – | – | – | – |
| CCc1c2c(nn1C)COCC(F)(F)CCn1c(C(=O)O)c(CCCOc3cccc4cc(F)ccc34)c3ccc(Cl)c-2c31 (single isomer, unassigned) [Example 86, (+)-4-chloro-3-ethyl-12,12-difluoro-7-{3-[(6-fluoronaphthalen-1-yl)oxy]propyl}-2-methyl-2,10,11,12,13,15-hexahydropyrazolo[4′,3′:9,10][1,6]oxazacycloundecino[8,7,6-hi]indole-8-carboxylic acid] | – | – | – | – | – | – | 620 | 9.3e-07 | 470 | – | – | – | – | – | – | – | 9.7e-07 | 6.4e-06 | 6.3e-07 |

Continued, in another order:

| EC50 (SUDHL10 cells [1]; Homo sapiens, SU-DHL10, 3 h) [nM] | IC50 (SUDHL5 cells [2]; Homo sapiens, SU-DHL-5, 72 h) [M] | EC50 (SUDHL5 cells [5]; Homo sapiens, SU-DHL-5, 3 h) [nM] | EC50 (SUDHL10 cells [1]) [nM] | IC50 (SUDHL5 cells [2]) [M] | EC50 (SUDHL5 cells [5]) [nM] | EC50 (SUDHL10 cells [1]; listed as 086) [nM] | IC50 (SUDHL5 cells [2]; listed as 086) [M] | EC50 (SUDHL5 cells [5]; listed as 086) [nM] | Structure (SMILES) | IC50 (SUDHL10 cells [3]; [6]) [M] | IC50 (HMC-1-8 cells; 72 h) [M] | IC50 (AMO-1 cells; Homo sapiens, AMO1, 72 h) [M] | IC50 (SUDHL5 cells [4]; [7]) [M] | IC50 (SUDHL10 cells [3]; read-out: Cytotox SUDHL10 [M] (median), IC50, median) | IC50 (AMO-1 cells) [M] | IC50 (SUDHL5 cells [4]; read-out: Cytotox SUDHL5 [M] (median), IC50, median) | IC50 (SUDHL10 cells [3]; read-out: Cytotox SUDHL10 [M] (median), IC50, median, listed as 086) | IC50 (HMC-1-8 cells; listed as 086) [M] | IC50 (SUDHL5 cells [4]; read-out: Cytotox SUDHL5 [M] (median), IC50, median, listed as 086) |
| --- | --- | --- | --- | --- | --- | --- | --- | --- | --- | --- | --- | --- | --- | --- | --- | --- | --- | --- | --- |
| 210 | 3.1e-07 | 480 | – | – | – | – | – | – | CCc1c2c(nn1C)COCCC(F)(F)Cn1c(C(=O)O)c(CCCOc3cccc4cc(F)ccc34)c3ccc(Cl)c-2c31 (racemic) [Example 96, (rac)-4-chloro-3-ethyl-11,11-difluoro-7-{3-[(6-fluoronaphthalen-1-yl)oxy]propyl}-2-methyl-2,10,11,12,13,15-hexahydropyrazolo[4′,3′:9,10][1,6]oxazacycloundecino[8,7,6-hi]indole-8-carboxylic acid] | 3.5e-07 | 5.3e-06 | 4.9e-07 | 4.7e-07 | – | – | – | – | – | – |
| 290 | 5.5e-07 | 440 | – | – | – | – | – | – | CCc1c2c(nn1C)COCC1(CCn3c(C(=O)O)c(CCCOc4cccc5cc(F)ccc45)c4ccc(Cl)c-2c43)CC1 (racemic) [Example 109, (rac)-4′-chloro-3′-ethyl-7′-{3-[(6-fluoronaphthalen-1-yl)oxy]propyl}-2′-methyl-2′,10′,11′,15′-tetrahydro-13′H-spiro[cyclopropane-1,12′-pyrazolo[4′,3′:9,10][1,6]oxazacycloundecino[8,7,6-hi]indole]-8′-carboxylic acid] | 2.8e-07 | 4.3e-06 | – | 5.9e-07 | – | – | – | – | – | – |
